Consider 32 compounds from patent publication US20230183237A1, “COMPETITIVE AND NONCOMPETITIVE INHIBITORS OF THE MUSCARINIC ACETYLCHOLINE RECEPTOR M5” (Vanderbilt University, priority 2020, published 2023).

Molecules are shown by their SMILES.

The target of this assay is T1, hM5 (Homo sapiens, UniProt P08912).
T1 construct: expressed in transfected cells
T1 sequence (P08912 1-532): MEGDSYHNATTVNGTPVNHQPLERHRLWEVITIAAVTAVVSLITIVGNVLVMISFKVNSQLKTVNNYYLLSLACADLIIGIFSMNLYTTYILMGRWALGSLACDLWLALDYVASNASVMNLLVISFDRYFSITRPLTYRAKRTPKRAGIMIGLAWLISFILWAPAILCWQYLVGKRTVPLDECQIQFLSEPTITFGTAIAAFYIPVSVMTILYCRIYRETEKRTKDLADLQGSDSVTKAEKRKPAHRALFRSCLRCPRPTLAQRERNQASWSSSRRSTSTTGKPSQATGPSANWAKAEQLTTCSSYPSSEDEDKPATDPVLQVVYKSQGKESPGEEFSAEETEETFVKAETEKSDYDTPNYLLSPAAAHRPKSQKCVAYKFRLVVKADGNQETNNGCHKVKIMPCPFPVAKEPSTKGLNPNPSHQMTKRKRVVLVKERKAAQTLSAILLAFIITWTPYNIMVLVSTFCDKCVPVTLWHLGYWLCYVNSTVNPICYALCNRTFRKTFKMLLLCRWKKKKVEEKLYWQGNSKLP
As to the kind of experiment: Calcium mobilization concentration-response (IC50 vs EC80 acetylcholine), CHO hM5. The assay is classed as cell-based. To be noted: CELL LINE hM5; vs EC80 acetylcholine; read-out: IC50. An outline of the steps: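 CHO cells stably expressing hM5, dye-loaded, in HBSS/20 mM HEPES/2.5 mM probenecid, pH 7.4. Compounds were pre-incubated 140 s before an EC80 acetylcholine challenge, with calcium flux read kinetically.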
In general, IC50 refers to the concentration needed to halve the response being measured. With `Cc1cnc2ccccc2c1C1=CCN(S(=O)(=O)c2cnn(C)c2Cl)CC1` [Compound 427, 4-(1-((5-chloro-1-methyl-1H-pyrazol-4-yl)sulfonyl)-1,2,3,6-tetrahydropyridin-4-yl)-3-methylquinoline], the IC50 came to 32 nM.
With `Cc1cnc2ccccc2c1C1=CCN(S(=O)(=O)c2cnn3c2OCCC3)CC1` [Compound 428, 3-((4-(3-methylquinolin-4-yl)-3,6-dihydropyridin-1(2H)-yl)sulfonyl)-6,7-dihydro-5H-pyrazolo[5,1-b][1,3]oxazine] the figure was 63 nM; with `Cc1cnccc1C1CCN(S(=O)(=O)c2cnn(C)c2Cl)CC1` [Compound 429, 4-(1-((5-chloro-1-methyl-1H-pyrazol-4-yl)sulfonyl)piperidin-4-yl)-3-methylpyridine], 398 nM; with `Cc1ncc(S(=O)(=O)N2CCC(c3ccncc3C)CC2)s1` [Compound 430, 2-methyl-5-((4-(3-methylpyridin-4-yl)piperidin-1-yl)sulfonyl)thiazole], greater than 10000 nM.
`Cc1cnccc1C1CCN(S(=O)(=O)c2cnn(C)c2C)CC1` [Compound 431, 4-(1-((1,5-dimethyl-1H-pyrazol-4-yl)sulfonyl)piperidin-4-yl)-3-methylpyridine]: the IC50 came out at 812 nM.
As for `Cn1ncc(S(=O)(=O)N2CCC(c3ccc4ncnn4c3)CC2)c1C#N` [Compound 432, 4-((4-([1,2,4]triazolo[1,5-a]pyridin-6-yl)piperidin-1-yl)sulfonyl)-1-methyl-1H-pyrazole-5-carbonitrile], the figure is 777 nM; as for `Cn1ncc(S(=O)(=O)N2CCC(c3ccc4ncnn4c3)CC2)c1CC#N` [Compound 433, 2-(4-((4-([1,2,4]triazolo[1,5-a]pyridin-6-yl)piperidin-1-yl)sulfonyl)-1-methyl-1-pyrazol-5-yl)acetonitrile], 3020 nM.
As for `Cc1cc2nccn2nc1N1CCN(S(=O)(=O)c2cnn(C)c2C)CC1` [Compound 434, 6-[4-(1,5-Dimethylpyrazol-4-yl)sulfonylpiperazin-1-yl]-7-methyl-imidazo[1,2-b]pyridazine], the figure is 43 nM.
As for `Cc1cc2nccn2nc1N1CCN(S(=O)(=O)c2cnn3c2CCC3)CC1` [Compound 435, 6-(4-((5,6-dihydro-4H-pyrrolo[1,2-b]pyrazol-3-yl)sulfonyl)piperazin-1-yl)-7-methylimidazo[1,2-b]pyridazine], the figure is 22 nM; as for `Cc1cc2nccn2nc1N1CCN(S(=O)(=O)c2cnc(C)n2C)CC1` [Compound 436, 6-(4-((1,2-dimethyl-1H-imidazol-5-yl)sulfonyl)piperazin-1-yl)-7-methylimidazo[1,2-b]pyridazine], 113 nM; as for `Cc1cc2nccn2nc1N1CCN(S(=O)(=O)c2cnn3c2OCCC3)CC1` [Compound 437, 3-((4-(7-methylimidazo[1,2-b]pyridazin-6-yl)piperazin-1-yl)sulfonyl)-6,7-dihydro-5H-pyrazolo[5,1-b][1,3]oxazine], 59 nM.
Regarding `Cc1c(C2CCN(S(=O)(=O)c3cnn(C)c3C#N)CC2)cn2ncnc2c1F` [Compound 438, 4-((4-(8-flooro-7-methyl-[1,2,4]triazolo[1,5-a]pyridin-6-yl)piperidin-1-yl)sulfonyl)-1-methyl-1H-pyrazole-5-carbonitrile], the IC50 is 26 nM.
With `Cc1c(C2CCN(S(=O)(=O)c3cnn(C)c3CC#N)CC2)cn2ncnc2c1F` [Compound 439, 2-(4-((4-(8-fluoro-7-methyl-[1,2,4]triazolo[1,5-a]pyridin-6-yl)piperidin-1-yl)sulfonyl)-1-methyl-1H-pyrazol-5-yl)acetonitrile], the IC50 was found to be 162 nM.
As to `[2H]C([2H])([2H])OCc1c(S(=O)(=O)N2CCC(c3cn4ncnc4cc3C)CC2)cnn1C` [Compound 440, 6-(1-((5-((methoxy-d3)methyl)-1-methyl-1H-pyrazol-4-yl)sulfonyl)piperidin-4-yl)-7-methyl-[1,2,4]triazolo[1,5-a]pyridine], the IC50 is 4960 nM.
Turning to `[2H]C([2H])([2H])OCc1c(S(=O)(=O)N2CCC(c3cn4ncnc4cc3F)CC2)cnn1C` [Compound 441, 7-fluoro-6-(1-((5-((methoxy-d3)methyl)-1-methyl-1H-pyrazol-4-yl)sulfonyl)piperidin-4-yl)-[1,2,4]triazolo[1,5-a]pyridine], the IC50 was greater than 10000 nM.
Take `Cc1cc2ncnn2cc1C1CCN(S(=O)(=O)c2cnn3cccnc23)CC1` [Compound 442, 7-methyl-6-(1-(pyrazolo[1,5-a]pyrimidin-3-ylsulfonyl)piperidin-4-yl)-[1,2,4]triazolo[1,5-a]pyridine]: the IC50 is 175 nM.
With `O=S(=O)(c1cnn2cccnc12)N1CCC(c2cn3ncnc3cc2F)CC1` [Compound 443, 7-fluoro-6-(1-(pyrazolo[1,5-a]pyrimidin-3-ylsulfonyl)piperidin-4-yl)-[1,2,4]triazolo[1,5-a]pyridine] the figure was greater than 10000 nM; with `Cc1cc2ncccc2cc1C1CCN(S(=O)(=O)c2cnn3c2CCC3)CC1` [Compound 444, 6-(1-((5,6-dihydro-pyrrolo[1,2-b]pyrazol-3-yl)sulfonyl)piperidin-4-yl)-7-methylquinoline], 15 nM.
With `Cc1cc2ncccc2cc1C1CCN(S(=O)(=O)c2c(C)nn(C)c2C(F)(F)F)CC1` [Compound 445, 6(1-((1,3-dimethyl-5-(trifluoromethyl)-1H-pyrazol-4-yl)sulfonyl)piperidin-4-yl)-7-methylquinoline] the figure was 1950 nM.
With `Cc1cc2ncccc2cc1C1CCN(S(=O)(=O)c2cnn3c2OCCC3)CC1` [Compound 446, 3-((4-(7-methylquinolin-6-yl)piperidin-1-yl)sulfonyl)-6,7-dihydro-5H-pyrazolo[5,1-b][1,3]oxazine] the figure was 28 nM; with `Cc1cc2ncccc2cc1C1CCN(S(=O)(=O)c2c(Cl)nn3ccccc23)CC1` [Compound 447, 6-(1-((2-chloropyrazolo[1,5-a]pyridin-3-yl)sulfonyl)piperidin-4-yl)-7-methylquinoline], 1360 nM.
As for `Cc1cc2ncccc2cc1C1CCN(S(=O)(=O)c2cnn3cccnc23)CC1` [Compound 448, 7-methyl-6-(1-(pyrazolo[1,5-a]pyrimidin-3-ylsulfonyl)piperidin-4-yl)quinoline], the half-inhibitory concentration (IC50) is 1990 nM.
With `Cc1ncc(S(=O)(=O)N2CCC(c3cc4cccnc4cc3C)CC2)s1` [Compound 449, 2-methyl-5-((4-(7-methylquinolin-6-yl)piperidin-1-yl)sulfonyl)thiazole] the figure was 2360 nM; with `Cc1cc2ncccc2cc1C1CCN(S(=O)(=O)c2cnc3n2CCCC3)CC1` [Compound 450, 7-methyl-6-(1-((5,6,7,8-tetrahydroimidazo[1,2-a]pyridin-3-yl)sulfonyl)piperidin-4-yl)quinoline], 39 nM; with `Cc1cc2ncccc2cc1C1CCN(S(=O)(=O)c2c(Cl)nc3sccn23)CC1` [Compound 451, 6-chloro-5-((4-(7-methylquinolin-6-yl)piperidin-1-yl)sulfonyl)imidazo[2,1-b]thiazole], 619 nM.
With `Cc1cc2ncccc2cc1C1CCN(S(=O)(=O)c2cnc3ccccn23)CC1` [Compound 452, 6-(1-(imidazo[1,2-a]pyridin-3-ylsulfonyl)piperidin-4-yl)-7-methylquinoline] the figure was 445 nM; with `Cc1cc2ccnn2cc1C1CCN(S(=O)(=O)c2cnn(C)c2C)CC1` [Compound 453, 6-(1-((1,5-dimethyl-1H-pyrazol-4-yl)sulfonyl)piperidin-4-yl)-5-methylpyrazolo[1,5-a]pyridine], 216 nM; with `Cc1cc2ccnn2cc1C1CCN(S(=O)(=O)c2cnn(C)c2CC#N)CC1` [Compound 454, 2-(1-methyl-4-((4-(5-methylpyrazolo[1,5-a]pyridin-6-yl)piperidin-1-yl)sulfonyl)-1H-pyrazol-5-yl)acetonitrile], greater than 10000 nM.
With `Cc1c(S(=O)(=O)N2CCC(c3cn4ncnc4cc3C(F)F)CC2)cnn1C` [Compound 455, 7-(difluoromethyl)-6-(1-((1,5-dimethyl-1H-pyrazol-4-yl)sulfonyl)piperidin-4-yl)-[1,2,4]triazolo[1,5-a]pyridine] the figure was 63 nM; with `Cn1ncc(S(=O)(=O)N2CCC(c3cn4ncnc4cc3C(F)F)CC2)c1CC#N` [Compound 456, 2-(4-((4-(7-(difluoromethyl)-[1,2,4]triazolo[1,5-a]pyridin-6-yl)piperidin-1-yl)sulfonyl)-1-methyl-1H-pyrazol-5-yl)acetonitrile], 414 nM.
Consider `Cc1cc2ncnn2cc1C1(F)CCN(S(=O)(=O)c2cnn(C)c2CC#N)CC1` [Compound 457, 2-(4-((4-fluoro-4-(7-methyl-[1,2,4]triazolo[1,5-a]pyridin-6-yl)piperidin-1-yl)sulfonyl)-1-methyl-1H-pyrazol-5-yl)acetonitrile], for which the IC50 was greater than 10000 nM.
Regarding `Cc1cc2ncnn2cc1C1(F)CCN(S(=O)(=O)c2cnn3cccnc23)CC1` [Compound 458, 6-(4-fluoro-1-(pyrazolo[1,5-a]pyrimidin-3-ylsulfonyl)piperidin-4-yl)-7-methyl-[1,2,4]triazolo[1,5-a]pyridine], the IC50 was 754 nM.
